Results taken from publication PMC9916441, “Resveratrol Derivative Exhibits Marked Antiproliferative Actions, Affecting Stemness in Pancreatic Cancer Cells” (International Journal of Molecular Sciences, 2023).
Read-outs that look alike come from different tables or passages of the source.

Key:
[1] = tested on: poly-(ADP-ribose) polymerase (PARP); experiment: Western blot of PARP cleavage in PC cell lines; assay type: cell-based, human; details: vs untreated cells
Method: (§1) The PC cell lines treated with 50 μM DF5, RSV, or with vehicle (DMSO) were lysed in a cell lysis buffer containing PMSF, protease inhibitors cocktails, and phosphatase inhibitors. The protein lysate quantification and immunoblot analyses were performed as previously described.

[2] = tested on: AsPC-1, BxPC-3 and Capan-2 PC cell lines; experiment: Cell growth, trypan blue exclusion test; assay type: cell-based, human; details: 50 μM, counted at 24, 48 and 72 h, three PC cell lines, vs control
Method: The cell counting was performed using the trypan blue exclusion test. Briefly, PC cells were seeded in 24-well plates (5 × 10^4 cells/well) and then were treated with 50 μM of DF5, RSV, or with vehicle and counted at 24, 48, and 72 h.

cyclin B1/CDK1 complex = experiment: Western blot of cyclin B1, Cdc2/Cdk1 and p-Cdc2 (Thr161) in PC cell lines; assay type: cell-based, human; details: 50 μM
Method: as §1

[3] = tested on: AsPC-1, BxPC-3 and Capan-2 PC cell lines; experiment: Cell cycle analysis by flow cytometry; assay type: cell-based, human; details: 50 μM, 24 h
Method: To perform the cell cycle analysis, the PC cells (3 × 10^5) were collected, fixed in 70% cold ethanol, and kept at 4 °C overnight. The collected cells were incubated at 4 °C overnight in 5 μg/mL PI (final concentration) and 100 μg/mL RNAse (final concentration). The cell cycle profiles were analyzed as previously described.

PAMPA-GI permeability = assay type: in vitro ADME; details: for Papp at 16 h, 500 µM: PAMPA, 16 h incubation, read-out: Permeability, Pe
Method: A PAMPA was used to evaluate the passive intestinal absorption of DF5. The system consisted in a 96-well, MultiScreen-IP PAMPA filter plate (donor plate) equipped with a PVDF membrane filter and a 96-well PTFE acceptor plate. The PVDF membrane was coated with 5 µL of a 2% w/v lecithin in n-dodecane solution. […] Donor and acceptor solutions, both containing 5% of DMSO v/v%, were employed to avoid precipitation of the drug. The system was assembled placing the drug-filled donor plate into the acceptor plate and incubated at room temperature for 16 h. Each solution was analyzed using HPLC and the permeability (Pe, nm/s) was determined as previously reported.

[4] = Human plasma stability assay; assay type: in vitro ADME; details: 80% human plasma, 37 °C
Method: The in vitro enzymatic stabilities of DF5 were assessed in human plasma and simulated gastric and intestinal fluids (SGF and SIF, respectively). For the human plasma stability assay, 10 μL of a 10^-4 M stock solution of DF5 in acetonitrile was added to a pre-heated (37 °C) plasma fraction and diluted with phosphate buffer (pH 7.4, 0.02 M) to obtain a final volume of 1 mL (80% plasma). The samples (50 µL) were extracted at various times and 200 µL of cold acetonitrile containing 0.5% v/v of formic acid were employed to stop the enzymatic reaction. After centrifugation for 10 min at 5000 g, the supernatant was removed and analyzed using HPLC [57].

[5] = Enzymatic stability in simulated intestinal fluid (SIF) with pancreatin; assay type: in vitro ADME; details: SIF pH 6.8 with pancreatin, 37 °C
Method: (§2) The SGF and SIF, containing pepsin and pancreatin, respectively, were prepared following the USP specifications. The reactions were carried out in a shaking water bath at 37 °C. The drug stock solution (10 μL of a 10^−4 M) was added to the preheated gastrointestinal fluids and, at fixed time points (0, 15, 30, and 60 min for SGF and 0, 60, 120, and 180 min for SIF), 20 μL of the media were mixed with 200 μL of cold acetonitrile containing 0.5% v/v of formic acid. The samples were centrifuged for 10 min at 5000× g and the supernatants were analyzed using HPLC. The relative difference (RD%) was used to predict the amount of compound decomposed in the presence of gastrointestinal fluids.

Capan-2 [6] = experiment: Colony formation assay; assay type: cell-based, human; details: Capan-2, 20 µM, 72 h treatment
Method: (§3) A colony formation assay was performed as previously described. Briefly, the PC cells were seeded in 6-well plates, incubated for 24 h, and then treated for 72 h with 20 μM DF5, DF12, and RSV or with vehicle (DMSO) as indicated. After 4 days, following methanol fixation and crystal violet staining, the colonies of at least 30 cells were counted.

AsPC-1 [7] = experiment: Colony formation assay; assay type: cell-based, human; details: AsPC-1, 20 µM, 72 h treatment
Method: as §3

BxPC-3 [8] = experiment: Colony formation assay; assay type: cell-based, human; details: BxPC-3, 20 µM, 72 h treatment
Method: as §3

Capan-2 [9] = experiment: Apoptosis assay, annexin-V staining by flow cytometry; assay type: cell-based, human; details: 24 h
Method: (§4) The apoptosis assay was performed essentially as previously described. the analyses were performed using a CytoFLEX flow cytometer, using the FL1 detector in linear mode and the CytoExpert software (Beckmann Coulter, Milano, Italy).

AsPC-1 [10] = experiment: as above; assay type: cell-based, human; details: 24 h
Method: as §4

BxPC-3 [11] = experiment: as above; assay type: cell-based, human; details: 24 h
Method: as §4

[12] = Enzymatic stability in simulated gastric fluid (SGF) with pepsin; assay type: in vitro ADME; details: SGF pH 1.2 with pepsin, 37 °C
Method: as §2

p-SER^139H2AX = experiment: Western blot of phospho-H2AX (γH2AX) in PC cell lines; assay type: cell-based, human
Method: as §1

- Papp at 16 h, 500 µM (PAMPA-GI permeability; pH 5 (donor and acceptor)): 6.02 ×10⁻⁶ cm/s
- Papp at 16 h, 500 µM (PAMPA-GI permeability; pH 6.5 (donor and acceptor)): 9 ×10⁻⁶ cm/s
- Papp at 16 h, 500 µM (PAMPA-GI permeability; pH 7.4 (donor and acceptor)): 2.59 ×10⁻⁶ cm/s
- stability in human plasma [4]: stable (stable: RD% < 5%)
- RD% (relative difference) ([5]; 60 min): 8.12%
- RD% (relative difference) ([5]; 120 min): 9.20%
- RD% (relative difference) ([5]; 180 min): 9.36%
- RD% (relative difference) ([12]; 15 min): 4.36%
- RD% (relative difference) ([12]; 30 min): 7.10%
- RD% (relative difference) ([12]; 60 min): 8.87%
Compound: Cc1ccc(/C=C/c2ccc(O)cc2)cc1 [DF5]
- effect on cleaved:uncleaved PARP ratio ([1]; AsPC-1, 50 μM): strong increase in cleaved:uncleaved PARP ratios
- effect on cleaved:uncleaved PARP ratio ([1]; BxPC-3, 50 μM): minimal effects on the PARP cleavage ratio
- effect on cleaved:uncleaved PARP ratio ([1]; Capan-2, 50 μM): strong increase in cleaved:uncleaved PARP ratios
- effect on cell growth (cell number) [2]: significantly, drastically, and comparably affected cell growth
- effect on expression of the cyclin B1/CDK1 complex (cyclin B1/CDK1 complex; AsPC-1 and Capan-2, also Cdc2/CDK1 dephosphorylation at Thr-161): reduction in the expression of the cyclin B1/CDK1 complex
- effect on expression of the cyclin B1/CDK1 complex (cyclin B1/CDK1 complex; BxPC-3): much less evident
- effect on cells in G0/G1 phase ([3]; across the three PC cell lines, vs untreated cells): statistically significant accumulation of cells at the G0/G1 phase
- effect on cells in G2/M phase ([3]; three PC cell lines, in Capan-2 it did not reach statistical significance): drastic depletion of cells in the G2/M phase
- Classification (GI permeation) (PAMPA-GI permeability; pH 5): Pe+ (Pe+ (indicative of high GI permeation): Pe (nm s^−1) > 10)
- Classification (GI permeation) (PAMPA-GI permeability; pH 6.5): Pe+ (Pe+ (indicative of high GI permeation): Pe (nm s^−1) > 10)
- Classification (GI permeation) (PAMPA-GI permeability; pH 7.4): Pe+ (Pe+ (indicative of high GI permeation): Pe (nm s^−1) > 10)
- effect on clonogenicity (colony formation) (Capan-2 [6]): more drastic, prominent, and consistent effects on PC cell clonogenicity
- effect on clonogenicity (colony formation) (AsPC-1 [7]): totally abolish colony formation
- effect on clonogenicity (colony formation) (BxPC-3 [8]): totally abolish colony formation
- apoptosis induction (Annexin V+ cells) (Capan-2 [9]; Capan-2, 20 μM): statistically significant apoptosis
- apoptosis induction (Annexin V+ cells) (Capan-2 [9]; Capan-2, 50 μM): significant induction of apoptosis
- apoptosis induction (Annexin V+ cells) (AsPC-1 [10]; AsPC-1, 20 μM): statistically significant apoptosis
- apoptosis induction (Annexin V+ cells) (AsPC-1 [10]; AsPC-1, 50 μM): significant induction of apoptosis
- apoptosis induction (Annexin V+ cells) (BxPC-3 [11]; BxPC-3, 20 μM): neither compound affected apoptosis
- apoptosis induction (Annexin V+ cells) (BxPC-3 [11]; BxPC-3, 50 μM): significant induction of apoptosis
- activation (phosphorylation) of H2AX (p-SER^139H2AX; AsPC-1, 50 μM): marked activation of H2AX
- activation (phosphorylation) of H2AX (p-SER^139H2AX; BxPC-3, 50 μM): negligible activation
- activation (phosphorylation) of H2AX (p-SER^139H2AX; Capan-2, 50 μM): less marked
